Here are results for 46 compounds from article PMC9697826 (Pharmaceuticals, 2022).

Molecules are shown by their SMILES.

For one series, the target named is T1, FABP4 (Homo sapiens, UniProt P15090).
T1 construct: purchased Cayman Chemical 10010231
T1 sequence (P15090 whole entry): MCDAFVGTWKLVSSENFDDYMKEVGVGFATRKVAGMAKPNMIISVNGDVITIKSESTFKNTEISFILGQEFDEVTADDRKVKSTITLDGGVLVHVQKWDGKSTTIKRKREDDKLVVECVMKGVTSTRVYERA
Briefly: FABP4 Inhibitor/Ligand Screening Assay Kit: displacement of a fluorescent detection reagent. It counts as binding. The settings on record: displacement of detection reagent from FABP4; compounds diluted in PBS pH 7.4; fluorescence em 470 nm, ex 370 nm.
Description: FABP4 inhibitory activity was assessed by measuring the decrease in fluorescent signal of a detection reagent (DR) when displaced by a strong FABP4 ligand. […] Therefore, any effective ligand of the protein, which binds to the same binding pocket and can displace the DR, determines a reduction in the fluorescence read-out. The new molecular series was screened in a two-step procedure. Firstly, a single concentration of 5 µM was used to gain an estimation of the overall inhibitory effect of all the molecules.
To analyze the inhibitory activity of FABP4 ligands, a displacement assay was utilized as described by the Cayman’s instruction, FABP4 Inhibitor/Ligand Screening Assay Kit, Item 10,010,231 (see Supplementary Materials for additional details). The samples of compounds for activity determination were prepared as a stock solution (1 mM) in DMSO. On the day of activity assay, the compounds were all diluted in phosphate buffer solution (PBS, pH 7.4) to different concentrations (100, 50, 10, 5, 2, 1, and 0 µM). Appropriate concentrations of DMSO in PBS were used as control. The detection reagent (FABP Assay Detection Reagent, Item 10010376) was used as provided by the Cayman’s kit. The diluted Detection Reagent probe was mixed with FABP4 protein present in the kit and incubated for 10 min at room temperature. Compounds were then added and equilibrated for another 10 min. Lastly, the fluorescence signal was recorded at 470 nm (i.e., emission, with the excitation fixed at 370 nm) with a CytoFluor® Series 4000 Fluorescence Multi-Well Plate Reader.
For `Cn1nc(-c2ccccc2)cc(NC(N)=O)c1=O` [Compound 25a, (2-Methyl-3-oxo-6-phenyl-2,3-dihydro-pyridazin-4-yl)urea], the IC50 (usually the point on the concentration scale where inhibition reaches its midpoint) was 2.97 ± 0.26 µM.

`CSc1nnc(-c2ccccc2)cc1N` [Compound 27, 3-Methylsulfanyl-6-phenyl-pyridazin-4-ylamine] showed an IC50 above 50 µM.

`Cc1cc(N)c(=O)n(-c2ccccc2)n1` [Compound 54] returned an IC50 above 50 µM.

On to `Cn1nc(-c2ccccc2)cc(Nc2ccccc2C#N)c1=O` [Compound 30b, 2-(2-Methyl-3-oxo-6-phenyl-2,3-dihydro-pyridazin-4-ylamino)benzonitrile], for which the IC50 came to 23.2 ± 0.52 µM.

Still in this series, the particulars now being: summary statement in conclusions.
As to `Cn1nc(-c2ccccc2)cc(NC(N)=O)c1=O` [Compound 25a, (2-Methyl-3-oxo-6-phenyl-2,3-dihydro-pyridazin-4-yl)urea], the “FABP4 inhibitory activity, IC50 in words” value is on record as “low micromolar range”.

Take `Cn1nc(-c2ccccc2)cc(Nc2ccccc2C#N)c1=O` [Compound 30b, 2-(2-Methyl-3-oxo-6-phenyl-2,3-dihydro-pyridazin-4-ylamino)benzonitrile]: the “FABP4 inhibitory activity, IC50 in words” value is recorded as “low micromolar range”.

Tested on in a further series: not given
Assay: not given
Details: not given
In the case of `Nc1cc(Cc2ccccc2)n[nH]c1=O` [Compound 37d, 4-Amino-6-benzylpyridazin-3(2H)-one], the melting point (in general, the temperature, or range, at which the solid turns liquid) fell in the range of 247 to 250 °C.

In turn, `Cn1nc(-c2ccc(N)cc2)cc(N)c1=O` [Compound 42b, 4-Amino-6-(4-aminophenyl)-2-methylpyridazin-3(2H)-one] displayed a melting point of 208 to 209 °C.

`Cn1nc(-c2ccccc2)cc(NC(N)=O)c1=O` [Compound 25a, (2-Methyl-3-oxo-6-phenyl-2,3-dihydro-pyridazin-4-yl)urea] yielded a melting point above 300 °C.

In turn, `CCCCn1nc(-c2ccccc2)cc(N)c1=O` [Compound 24f, 4-Amino-2-butyl-6-phenylpyridazin-3(2H)-one] yielded a melting point of 67 to 69 °C.

`Nc1cc(C2CCCCC2)n[nH]c1=O` [Compound 37b, 4-Amino-6-cyclohexylpyridazin-3(2H)-one] showed a melting point of 284 to 287 °C.

For the compound `Cn1nc(-c2ccccc2)cc(Nc2cccc(C#N)c2)c1=O` [Compound 30a, 3-(2-Methyl-3-oxo-6-phenyl-2,3-dihydro-pyridazin-4-ylamino)benzonitrile], the melting point lay in the range of 234 to 235 °C.

Take `Cn1nc(-c2ccccn2)cc(N)c1=O` [Compound 48, 4-Amino-2-methyl-6-pyridin-2-yl-pyridazin-3(2H)-one]: the melting point was 294 to 295 °C.

In turn, `NC(=O)c1c(-c2ccccc2)nn(C2CCCCC2)c(=O)c1N` [Compound 21, 5-Amino-1-cyclohexyl-6-oxo-3-phenyl-1,6-dihydropyridazine-4-carboxylic acid amide] yielded a melting point of 125 to 128 °C.

In turn, `CSc1nnc(-c2ccccc2)cc1N` [Compound 27, 3-Methylsulfanyl-6-phenyl-pyridazin-4-ylamine] had a melting point of 168 to 170 °C.

Take `Cn1nc(-c2ccccn2)cc(NC(N)=O)c1=O` [Compound 49, (2-Methyl-3-oxo-6-pyridin-2-yl-2,3-dihydropyridazin-4-yl)-urea]: the melting point was above 300 °C.

In turn, `CC(=O)Nc1ccc(-c2cc(N)c(=O)n(C)n2)cc1` [Compound 44, N-[4-(5-Amino-1-methyl-6-oxo-1,6-dihydropyridazin-3-yl)-phenyl]-acetamide] had a melting point of 270 to 272 °C.

For `Cn1nc(-c2ccccc2O)cc(N)c1=O` [Compound 42a, 4-Amino-6-(2-hydroxyphenyl)-2-methylpyridazin-3(2H)-one], the melting point is 212 to 213 °C.

`CCCn1nc(-c2ccccc2)cc(N)c1=O` [Compound 24e, 4-Amino-6-phenyl-2-propylpyridazin-3(2H)-one]: the melting point was 79 to 81 °C.

For the compound `NC(=O)Nc1cc(-c2ccccc2)nn(C2CCCCC2)c1=O` [Compound 25b, (2-Cyclohexyl-3-oxo-6-phenyl-2,3-dihydro-pyridazin-4-yl)urea], the melting point was 261 to 263 °C.

`CC(C)n1nc(-c2ccccc2)cc(NC(N)=O)c1=O` [Compound 25d, (2-Isopropyl-3-oxo-6-phenyl-2,3-dihydro-pyridazin-4-yl)urea] showed a melting point of 260 to 263 °C.

In the case of `Cn1nc(C2CCCCC2)cc(NC(N)=O)c1=O` [Compound 39a, (6-Cyclohexyl-2-methyl-3-oxo-2,3-dihydropyridazin-4-yl)urea], the melting point fell in the range of 251 to 254 °C.

For `Cc1nn(-c2ccccc2)c(=O)c(N)c1C(N)=O` [Compound 16, 5-Amino-3-methyl-6-oxo-1-phenyl-1,6-dihydropyridazine-4-carboxylic acid amide], the melting point fell in the range of 247 to 249 °C.

As for `Nc1c(C(=O)Nc2ccccc2)c(-c2ccccc2)n[nH]c1=O` [Compound 4a, 5-Amino-6-oxo-3-phenyl-1,6-dihydropyridazine-4-carboxylic acid phenylamide], the melting point is 228 to 229 °C.

As for `Cc1nn(-c2ccccc2)c(=O)c(N)c1-c1ccn[nH]1` [Compound 57, 4-Amino-6-methyl-2-phenyl-5-(1H-pyrazol-5-yl)pyridazin-3(2H)-one], the melting point was 119 to 121 °C.

`CC(C)c1cc(N)c(=O)[nH]n1` [Compound 37c, 4-Amino-6-isopropylpyridazin-3(2H)-one]: the melting point lay in the range of 246 to 248 °C.

For the compound `CCC(=O)Nc1cc(-c2ccccc2)nn(C)c1=O` [Compound 29b, N-(2-Methyl-3-oxo-6-phenyl-2,3-dihydro-pyridazin-4-yl)propionamide], the melting point lay in the range of 210 to 211 °C.

Compound `Cn1nc(-c2ccccc2)cc(C(N)=O)c1=O` [Compound 51, 2-Methyl-3-oxo-6-phenyl-2,3-dihydropyridazine-4-carboxamide] had a melting point of 215 to 217 °C.

In turn, `Cn1nc(-c2ccsc2)cc(N)c1=O` [Compound 38a, 4-Amino-2-methyl-6-thiophen-3-yl-pyridazin-3(2H)-one] registered a melting point of 178 to 179 °C.

`CCCNC(=O)c1c(-c2ccccc2)nn(CC)c(=O)c1N` [Compound 5b, 5-Amino-1-ethyl-6-oxo-3-phenyl-1,6-dihydro-pyridazine-4-carboxylic acid propylamide]: the melting point was in the range of 141 to 143 °C.

For the compound `Cn1nc(-c2ccccc2)cc(Nc2ccccc2C(N)=O)c1=O` [Compound 31b, 2-(2-Methyl-3-oxo-6-phenyl-2,3-dihydro-pyridazin-4-ylamino)benzamide], the melting point lay in the range of 140 to 142 °C.

Compound `CC(C)C(=O)Nc1cc(-c2ccccc2)nn(C)c1=O` [Compound 29c, N-(2-Methyl-3-oxo-6-phenyl-2,3-dihydro-pyridazin-4-yl)isobutyramide] came in with a melting point of 146 to 148 °C.

Regarding `Cn1nc(Cc2ccccc2)cc(N)c1=O` [Compound 38d, 4-Amino-6-benzyl-2-methylpyridazin-3(2H)-one], the melting point was 104 to 108 °C.

In the case of `CC(=O)Nc1cc(-c2ccccc2)nn(C)c1=O` [Compound 29a, N-(2-Methyl-3-oxo-6-phenyl-2,3-dihydro-pyridazin-4-yl)acetamide], the melting point was 211 to 212 °C.

For the compound `Nc1cc(-c2ccccc2)nn(C2CCCCC2)c1=O` [Compound 24b, 4-Amino-2-cyclohexyl-6-phenylpyridazin-3(2H)-one], the melting point lay within 120 to 124 °C.

`CC(C)n1nc(-c2ccccc2)cc(N)c1=O` [Compound 24d, 4-Amino-2-isopropyl-6-phenylpyridazin-3(2H)-one] registered a melting point of 122 to 124 °C.

For the compound `CCn1nc(-c2ccccc2)c(C(=O)Nc2ccccc2)c(N)c1=O` [Compound 5a, 5-Amino-1-ethyl-6-oxo-3-phenyl-1,6-dihydropyridazine-4-carboxylic acid phenylamide], the melting point fell in the range of 172 to 173 °C.

For `NC(=O)Nc1cc(-c2ccccc2O)n[nH]c1=O` [Compound 40, [6-(2-Hydroxy-phenyl)-3-oxo-2,3-dihydro-pyridazin-4-yl]-urea], the melting point is above 300 °C.

The compound `Cn1nc(-c2ccccc2)cc(Nc2cccc(C(N)=O)c2)c1=O` [Compound 31a, 3-(2-Methyl-3-oxo-6-phenyl-2,3-dihydro-pyridazin-4-ylamino)benzamide] registered a melting point of 214 to 216 °C.

As to `CCCCn1nc(-c2ccccc2)cc(NC(N)=O)c1=O` [Compound 25f, (2-Butyl-3-oxo-6-phenyl-2,3-dihydro-pyridazin-4-yl)urea], the melting point lay in the range of 265 to 267 °C.

For `CCCC(=O)Nc1cc(-c2ccccc2)nn(C)c1=O` [Compound 29d, N-(2-Methyl-3-oxo-6-phenyl-2,3-dihydro-pyridazin-4-yl)butyramide], the melting point fell in the range of 187 to 189 °C.

Consider `N#Cc1c(-c2ccccc2)n[nH]c(=O)c1N` [Compound 7, 5-Amino-6-oxo-3-phenyl-1,6-dihydropyridazine-4-carbonitrile], for which the melting point lay within 287 to 289 °C.

`CC(=O)c1cnn(-c2ccccc2)c(=O)c1N` [Compound 18, 5-Acetyl-4-amino-2-phenylpyridazin-3(2H)-one] displayed a melting point of 181 to 183 °C.

In the case of `Cn1nc(-c2ccccc2)cc(N)c1=S` [Compound 32, 4-Amino-2-methyl-6-phenylpyridazine-3(2H)-thione], the melting point fell in the range of 134 to 135 °C.

With `Nc1cc(-c2ccsc2)n[nH]c1=O` [Compound 37a, 4-Amino-6-thiophen-3-yl-pyridazin-3(2H)-one], the melting point is above 300 °C.

`NC(=O)Nc1cc(-c2ccccc2)n[nH]c1=O` [Compound 28, (3-Oxo-6-phenyl-2,3-dihydro-pyridazin-4-yl)urea] registered a melting point above 300 °C.

On to `Cc1nn(-c2ccccc2)c(=O)c(N)c1C#N` [Compound 17, 5-Amino-3-methyl-6-oxo-1-phenyl-1,6-dihydropyridazine-4-carbonitrile], for which the melting point is 201 to 203 °C.

Take `Cn1nc(-c2ccccc2O)cc(NC(N)=O)c1=O` [Compound 43, [6-(2-Hydroxyphenyl)-2-methyl-3-oxo-2,3-dihydropyridazin-4-yl]-urea]: the melting point lay within 278 to 280 °C.

`NC(=O)c1c(-c2ccccc2)n[nH]c(=O)c1N` [Compound 6, 5-Amino-6-oxo-3-phenyl-1,6-dihydropyridazine-4-carboxylic acid amide] gave a melting point above 300 °C.

`CC(C)c1cc(NC(N)=O)c(=O)n(C)n1` [Compound 39b, (6-Isopropyl-2-methyl-3-oxo-2,3-dihydropyridazin-4-yl)urea] returned a melting point of 248 to 251 °C.
